# Test results from patent US10561736B1, “Apoptosis inhibitor formulations for prevention of hearing loss” (Spiral Therapeutics, Inc., priority 2019, dated 2020).
# Entries after “also recorded” stand apart in the source; their conditions may differ. Where two headings read alike, the source gives them in different places.
# Tests used:
# [1] = tested on: HEI-OC1 cells; assay: release of mitochondrial Cytc in HEI-OC1 cells with CisPt (flow cytometry); format: cell-based; settings: cellular model of CisPt-induced apoptosis
# Method: Flow cytometry was also used to characterize the effect of LPT99 in the release of mitochondrial Cytc in HEI-OC1 cells in vitro with CisPt prevention.
# (§1) The effect of LPT99 on proliferation of non-apoptotic cells was studied. A549 cells were cultured in the presence of LPT99 for up to 6 days; the cell number was monitored by flow cytometry, and doubling time was calculated.
# [2] = tested on: A549 cells; assay: proliferation of non-apoptotic A549 cells; format: cell-based; settings: A549 cells cultured with LPT99 up to 6 days; reversible on removal
# Method: as §1
# [3] = tested on: noise-induced ABR threshold shift; assay: noise trauma ABR threshold study (FIG. 6); format: in vivo; settings: TRAUMA+LPT99 group, 10 and 21 days
# [4] = cochlear distribution after IT administration (absorption); format: in vivo; settings: rat; for concentration at 24 h: cochlea (cochlear homogenate), other: intratympanic (IT), read-out: mean cochlear LPT99 concentration; for peak mean cochlear LPT99 concentration: 1 hour
# Excerpt: Cochleae were harvested and rinsed at several timepoints after intratympanic injection of drug product. Drug concentration (y axis) in cochlear homogenates is expressed as nanograms LPT99 per gram of cochlear homogenate. • (i) Absorption
# LPT99 cochlear distribution after IT administration was studied in rats. […] LPT99 concentration was quantified with an ultra-performance liquid chromatography tandem mass spectrometry (UPLC-ESI/MS/MS) system.
# [5] = distribution in cochlea and plasma after a single IT administration; format: in vivo; settings: rat
# Method: Distribution of LPT99 was investigated in cochlea and plasma after a single IT administration in rats. The inhibitor was administered at 50, 100, or 200 μM (dissolved in 5% hydroxypropyl cyclodextrin in physiological serum).
# [6] = tested on: BALB/c 3T3 mouse fibroblasts; assay: in vitro phototoxicity; format: cell-based; settings: ≤100 μM
# Method: An in vitro experiment was performed in BALB/c 3T3 mouse fibroblasts to determine the phototoxic potential of LPT99 at concentrations of ≤100 μM in 3T3 L1 cells.
# [7] = GLP acute systemic toxicity study with toxicokinetics, single IP dose; format: in vivo; settings: Sprague-Dawley, plasma, rat
# Method: (§2) A GLP acute systemic toxicity study was conducted with LPT99 administered via IP injection in Sprague-Dawley rats. The acute systemic toxicity study was preceded by a non-GLP maximum tolerated dose (MTD) toxicity study, via the same administration and test system, which determined the MTD of LTP99 to be 1000 mg/kg.
# (§3) LPT99 was suspended in vehicle [0.5% w/v methylcellulose and 0.1% v/v TWEEN® 80 in Milli-Q water] and administered intraperitoneally to Sprague-Dawley rats as a single dose at the doses of 100 (low—G2/G2TK), 300 (mid—G3/G3TK), and 750 (high—G4/G4TK) mg/kg body weight. The rats in vehicle control groups (G1/G1TK) received the vehicle alone. The dose volume administered was at an equivolume of 10 mL/kg body weight for all groups.
# (§4) The main toxicity groups consist of 15 rats/sex/group in G1 and G4 groups and 10 rats/sex/group in G2 and G3 groups. The toxicokinetic groups consisted of 6 males and 6 female rats each for the prevention groups, whereas the vehicle control group had 3 male and 3 female rats.
# [8] = tested on: Sprague-Dawley rats; assay: as above; format: in vivo; settings: rat; for dose proportionality of Cmax and AUClast: IP 100 to 750 mg/kg/day
# Method: as §2, §3, §4
# [9] = calculation of the maximum recommended starting dose (MRSD); design: species or system human
# Method: For the calculation of the maximum recommended starting dose (MRSD) the following parameters have been considered:
# The total perilymph volume in rat will be then: (Cochlearperilymph+Semicircular canalsperilymph)=STperilymph+SVperilymph+Semicircular canalsperilymph=1.04+1.59+0.9=3.53 μl
# The total perilymph volume in human has been described to be 158 μl (Buckingham and Valvassori, Ann. Otol. Rhinol. Laryngol. 2001, 110(2), 113-7).
# The amount of LPT99 to be injected in humans is normalized with the volumes of perilymph in rats and humans and the amount injected at the NOAEL dose as follows: LPT99 injected,rats/Volume perilymphrats=LPT99 injected,humans/Volume perilymphhumans 15 μg/3.53 μl=Y μg/158 μl; Y=671.38 μg.
# MRSD should not exceed that which is calculated to deliver 1/10th of the estimated perilymph concentration of LPT99 in rat at the NOAEL, when normalized to the perilymph volume in humans. 67.14 μg ( 1/10 of 671.38 μg) is calculated as the maximum mass of LPT99 to be delivered in a volume of 200 μl. The MRSD would be then 67.14 μg/200 μl=535 μM.
# [10] = tested on: HEI-OC1 cells; settings: cellular model of CisPt-induced apoptosis; IEB Symposium abstracts 2016; cited from earlier work
# [11] = cochlear distribution after IT administration (absorption); format: in vivo, rat; settings: LPT99 formulation in hydrogel, detection limit 2 ng/mL=3.2 nM
structure (smiles),measurement,setting,value
"COc1ccc2[nH]cc(CCNC(=O)CC3C(=O)N(CCc4ccc(Cl)cc4Cl)CC(=O)N3CCc3cccs3)c2c1 (stereo not shown) [LPT99, 2-(4-(2,4-dichlorophenethyl)-3,6-dioxo-1-(2-(thiophen-2-yl)ethyl)piperazin-2-yl)-N-(2-(5-methoxy-1H-indol-3-yl)ethyl)acetamide]",release of Cytc from mitochondria,[1],decreased release of Cytc from mitochondria
same,cellular proliferation of non-apoptotic cells,[2],delayed cellular proliferation
same,noise-induced ABR Threshold shift,[3],back at basal levels
same,concentration at 24 h,[4]; IT 50 μM,1.8 ng/g
same,concentration at 24 h,[4]; IT 100 μM,13.9 ng/g
same,concentration at 24 h,[4]; IT 200 μM,13.4 ng/g
same,distribution after IT administration,[4]; IT,distributes locally to the cochlea; also recorded: distributed to cochlea in a dose-dependent manner
same,peak mean cochlear LPT99 concentration,[4]; IT 50 μM,328.5 ng/g cochlea
same,peak mean cochlear LPT99 concentration,[4]; IT 100 μM,491.3 ng/g cochlea
same,peak mean cochlear LPT99 concentration,[4]; IT 200 μM,611.1 ng/g cochlea
same,detection of LPT99 in administered cochleae,"[5]; single IT 50, 100, or 200 μM in 5% hydroxypropyl cyclodextrin, 0.5 and 1 hour",detected in all administered cochleae
same,LPT99 concentrations in contralateral cochleae and plasma,"[5]; single IT, all time points",BLLQ
same,cytotoxicity in the presence or absence of ultraviolet-visible irradiation,[6],not cytotoxic
same,phototoxicity,[6],not be phototoxic
same,Tmax,"[7]; IP 100 mg/kg/day, female, read-out: Tmax",8 h
same,Tmax,"[7]; IP 100 mg/kg/day, male, read-out: Tmax",2 h
same,Tmax,"[7]; both sexes, IP, dose levels other than 100 mg/kg/day, both genders, read-out: time to reach peak plasma concentrations (Tmax)",24 h
same,body weights or body weight gains,"[8]; IP 750 mg/kg, first 7 days, both sex",not statistically significantly lower
same,food consumption,"[8]; IP 750 mg/kg, males days 1-7, females days 1-4, vs control",statistically significant reduction
same,epididymides weight,"[8]; IP 750 mg/kg, males, Day 2",increase in epididymides weight
same,neutrophil count,"[8]; IP 750 mg/kg, males, Day 15",minimal increase in neutrophil count
same,dose proportionality of Cmax and AUClast,[8]; female,approximate dose proportional increase
same,dose proportionality of Cmax and AUClast,[8]; male,More than dose proportional increase
same,liver weight,"[8]; IP 300 and 750 mg/kg, males and females, Day 2",increase in liver weight
same,"inflammatory response, localisation","[8]; IP, Day 2 and Day 15, parenchyma not affected",restricted to the mesentery and surface of the visceral organs in abdominal cavity
same,coagulation parameters,"[8]; IP, Days 2 and 15",not affected
same,urinalysis parameters,"[8]; IP, Days 2 and 15",unaffected
same,neutrophil count,"[8]; IP, all dose groups, Day 2",increased neutrophil count
same,"mediastinal lymph node, microscopic finding","[8]; IP, all test item injected groups, Day 2",necrosis/inflammation of lymph node
same,exposure in females relative to males,"[8]; IP, all tested dose levels",1.5-5.5 fold
same,clinical chemistry parameters,"[8]; IP, males",no test item related changes
same,general tolerability,"[8]; single IP 100, 300, 750 mg/kg",generally safe and well tolerated
same,mortality,"[8]; single IP 100, 300, 750 mg/kg",No mortality was observed
same,clinical signs,"[8]; single IP, all tested dose groups",no clinical signs observed
same,MRSD,[9]; human,535 µM
same,maximum mass of LPT99 to be delivered (1/10 of NOAEL equivalent),[9]; in a volume of 200 μl,67.14 µg
same,amount of LPT99 to be injected in humans normalized by perilymph volume at the NOAEL,[9]; rat 3.53 μl vs human 158 μl perilymph,671.38 µg
same,cell viability,[10],improved cell viability
same,LPT99 in plasma after IT administration,[11],no LPT99 has been found in plasma; also recorded: not detected systemically
same,LPT99 in plasma after IT administration,[11]; listed as LTP99,not detectable in plasma
